Measured values as given in patent publication US20060069132A1, “Azolecarboxamide herbicides” (priority 2004, published 2006).

What was measured:
johnsongrass = experiment: Test C pre-/postemergence herbicide test; type: in vivo, Sorghum halepense; details: for Johnsongrass plant response rating: Preemergence
In short: (§1)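 Emerged plants at the 1- to 4-leaf stage (2–18 cm), or freshly planted seeds, received test chemicals in a non-phytotoxic solvent mixture with surfactant. Response was visually scored against controls after 12 to 14 days in the greenhouse, on a 0 (no effect) to 100 (complete control) scale.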

bermudagrass = experiment: Test C pre-/postemergence herbicide test; type: in vivo, Cynodon dactylon; details: for Bermudagrass plant response rating: Preemergence
In short: as §1

morningglory = experiment: Test C pre-/postemergence herbicide test; type: in vivo, Ipomoea coccinea; design: key to Plant response rating, Morningglory: 0 = no effect, 100 = complete control; details: for Morningglory plant response rating: Preemergence
In short: as §1

woolly cupgrass = experiment: Test C pre-/postemergence herbicide test; type: in vivo, Eriochloa villosa; details: for Cupgrass, Woolly plant response rating: Preemergence
In short: as §1

barnyardgrass = experiment: Test C flooded paddy test; type: in vivo, Echinochloa crus-galli; details: for Plant response rating, Barnyardgrass: 500 g ai/ha, visual rating after 12 to 14 days
In short: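 Greenhouse test with a 12–14 day hold after application and visual comparison with controls. Emerged plants were 1- to 4-leaf stage (2–18 cm) when sprayed postemergence, and the paddy barnyardgrass was at 2 leaves under flooded conditions. 100 = complete control.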

Surinam grass = experiment: Test C pre-/postemergence herbicide test; type: in vivo, Urochloa decumbens; details: for Surinam Grass plant response rating: Preemergence
In short: as §1

[1] = 62 g ai/ha, preemergence, scale 0 to 100
[2] = 125 g ai/ha, scale 0 (no effect) to 100 (complete control), visual, 12 to 14 days, preemergence
[3] = 250 g ai/ha, scale 0-100, preemergence
[4] = 500 g ai/ha, scale 0 to 100 (0 no effect, 100 complete control), visual, 12 to 14 days, preemergence
[5] = 62 g ai/ha, preemergence, scale 0 to 100, 0 no effect, 100 complete control
[6] = 500 g ai/ha, scale 0 to 100, 0 no effect, 100 complete control
[7] = 62 g ai/ha, scale 0 to 100 (0 no effect, 100 complete control)
[8] = 125 g ai/ha, scale 0 to 100 (0 no effect, 100 complete control)
[9] = 250 g ai/ha, scale of 0 to 100, 0 is no effect, 100 is complete control
[10] = scale 0 to 100 (0 no effect, 100 complete control)
[11] = 250 g ai/ha, scale 0 to 100 (0 no effect, 100 complete control), visual, 12 to 14 days, preemergence
[12] = Postemergence, 250 g ai/ha, scale 0 to 100, 0 no effect, 100 complete control
[13] = postemergence, 125 g ai/ha, scale 0 to 100
[14] = postemergence, 62 g ai/ha, scale 0 to 100

Compound | Plant response rating, Johnsongrass (johnsongrass; [1]) | Plant response rating, Johnsongrass (johnsongrass; [2]) | Plant response rating, Johnsongrass (johnsongrass; [3]) | Plant response rating, Johnsongrass (johnsongrass; [4]) | Plant response rating, Bermudagrass (bermudagrass; [5]) | Plant response rating, Bermudagrass (bermudagrass; [2]) | Plant response rating, Bermudagrass (bermudagrass; [3]) | Bermudagrass plant response rating (bermudagrass; [6]) | Plant response rating, Morningglory (morningglory; [1]) | Plant response rating, Morningglory (morningglory; [2]) | Plant response rating, Morningglory (morningglory; [3]) | Plant response rating, Morningglory (morningglory; [4]) | Plant response rating, Cupgrass, Woolly (woolly cupgrass; [1]) | Plant response rating, Cupgrass, Woolly (woolly cupgrass; [2]) | Plant response rating, Cupgrass, Woolly (woolly cupgrass; [3]) | Barnyardgrass plant response rating (barnyardgrass; [7]) | Barnyardgrass plant response rating (barnyardgrass; [8]) | Barnyardgrass plant response rating (barnyardgrass; [9]) | Plant response rating, Barnyardgrass (barnyardgrass; [10]) | Plant response rating, Surinam Grass (Surinam grass; [3]) | also measured
CCN1N=C(C(C)(C)C)CC1C(=O)Nc1cc(C(=O)N2CC=CC2)ccc1F (racemic) [Compound 310] | 0 | 10 | 20 | 80 | 50 | 85 | 100 | 100 | 0 | 5 | 5 | 10 | 5 | 10 | 70 | 35 | 50 | 70 | 90 | 30 | Plant response rating, Surinam Grass (Surinam grass; [1]): 5; Plant response rating, Surinam Grass (Surinam grass; [4]): 50
C=CCn1nc(C(C)(C)C)cc1C(=O)Nc1cccc(C(=O)NCC)c1 [Compound 56] |  | 70 |  |  |  | 90 |  | 95 |  | 0 |  |  |  | 0 |  | 0 |  | 65 | 80 |  | Plant response rating (0 = no effect, 100 = complete control), Johnsongrass (johnsongrass; 62 g ai/ha, preemergence): 55; Plant response rating, Johnsongrass (johnsongrass; [11]): 85; Johnsongrass plant response rating (johnsongrass; [6]): 90; Plant response rating (0 = no effect, 100 = complete control), Bermudagrass (bermudagrass; 62 g ai/ha, preemergence): 85; Plant response rating, Bermudagrass (bermudagrass; [11]): 95; Plant response rating (0 = no effect, 100 = complete control), Morningglory (morningglory; 62 g ai/ha, preemergence): 0; Plant response rating, Morningglory (morningglory; [11]): 55; Morningglory plant response rating (morningglory; [6]): 55; Plant response rating (0 = no effect, 100 = complete control), Cupgrass, Woolly (woolly cupgrass; 62 g ai/ha, preemergence): 0; Plant response rating, Cupgrass, Woolly (woolly cupgrass; [11]): 35; Cupgrass, Woolly plant response rating (woolly cupgrass; [6]): 40; Barnyardgrass plant response rating (barnyardgrass; 125 g ai/ha, scale of 0 to 100, 0 is no effect, 100 is complete control): 20; Plant response rating (0 = no effect, 100 = complete control), Surinam Grass (Surinam grass; 62 g ai/ha, preemergence): 10; Plant response rating, Surinam Grass (Surinam grass; [2]): 15; Plant response rating, Surinam Grass (Surinam grass; [11]): 60; Surinam Grass plant response rating (Surinam grass; [6]): 75
CCNC(=O)c1ccc(F)c(NC(=O)c2cn(C(C)(C)C)nc2CC)c1 [Compound 193] | 60 | 85 | 90 |  | 60 | 80 | 85 | 100 | 20 | 20 | 100 |  | 10 | 40 | 60 | 30 | 55 | 85 | 90 | 95 | Johnsongrass plant response rating (johnsongrass; [6]): 100; Morningglory plant response rating (morningglory; [6]): 100; Cupgrass, Woolly plant response rating (woolly cupgrass; [6]): 70; Plant response rating, Surinam Grass (Surinam grass; [1]): 50; Plant response rating, Surinam Grass (Surinam grass; [2]): 80; Surinam Grass plant response rating (Surinam grass; [6]): 100
CCn1nc(C(C)(C)C)cc1C(=O)Nc1cc(C(=O)N(C)OC)ccc1F [Compound 244] | 60 | 95 | 95 | 100 | 95 | 100 | 100 | 100 | 0 | 15 | 20 | 55 | 65 | 65 | 85 | 0 | 70 | 75 | 80 | 100 | Plant response rating, Cupgrass, Woolly (woolly cupgrass; [4]): 95; Plant response rating, Surinam Grass (Surinam grass; [1]): 100; Plant response rating, Surinam Grass (Surinam grass; [4]): 100
CCOC(=O)c1cccc(NC(=O)c2cc(C3(C)CC3)nn2CC)c1 [Compound 295] |  |  |  |  |  |  |  |  |  |  |  |  |  |  |  | 0 | 15 | 25 | 40 |  | Plant response rating, Johnsongrass (johnsongrass; [12]): 5; Plant response rating, Johnsongrass (johnsongrass; [13]): 5; Plant response rating, Johnsongrass (johnsongrass; [14]): 5; Plant response rating, Bermudagrass (bermudagrass; [12]): 0; Plant response rating, Bermudagrass (bermudagrass; [13]): 0; Plant response rating, Bermudagrass (bermudagrass; postemergence, 31 g ai/ha, scale 0 to 100): 0; Plant response rating, Bermudagrass (bermudagrass; [14]): 0; Plant response rating, Morningglory (morningglory; [12]): 30; Plant response rating, Morningglory (morningglory; [13]): 10; Plant response rating, Morningglory (morningglory; [14]): 10; Plant response rating, Cupgrass, Woolly (woolly cupgrass; [12]): 15; Plant response rating, Cupgrass, Woolly (woolly cupgrass; [13]): 15; Plant response rating, Cupgrass, Woolly (woolly cupgrass; [14]): 10; Plant response rating, Surinam Grass (Surinam grass; [12]): 15; Plant response rating, Surinam Grass (Surinam grass; [13]): 5; Plant response rating, Surinam Grass (Surinam grass; [14]): 5
CCn1nc(C(C)(C)C)cc1C(=O)Nc1ccc(OC)c(OC)c1 [Compound 298] | 20 | 40 | 60 | 90 | 50 | 55 | 80 | 95 |  | 5 | 20 | 45 | 5 | 10 | 30 | 15 | 50 | 65 | 90 | 40 | Plant response rating, Cupgrass, Woolly (woolly cupgrass; [4]): 60; Plant response rating, Surinam Grass (Surinam grass; [1]): 5; Plant response rating, Surinam Grass (Surinam grass; [4]): 70
CCn1nc(C2(C)CC2)cc1C(=O)Nc1cc(C(=O)N2CC=CC2)ccc1F [Compound 301] | 30 |  | 85 | 95 | 80 | 90 | 90 | 95 | 5 | 5 | 10 | 60 | 10 | 50 | 70 | 50 | 75 | 90 | 95 | 80 | Plant response rating, Cupgrass, Woolly (woolly cupgrass; [4]): 90; Plant response rating, Surinam Grass (Surinam grass; [1]): 0; Plant response rating, Surinam Grass (Surinam grass; [4]): 90
C=CCNC(=O)c1cccc(NC(=O)c2nn(C(C)C)nc2CC)c1 [Compound 382] | 70 |  | 100 | 100 | 60 |  | 85 |  | 0 |  | 65 | 100 | 0 |  | 20 | 10 | 25 | 65 | 75 | 100 | Plant response rating (0 = no effect, 100 = complete control), Johnsongrass (johnsongrass; 125 g ai/ha, preemergence): 95; Plant response rating (0 = no effect, 100 = complete control), Bermudagrass (bermudagrass; 125 g ai/ha, preemergence): 80; Plant response rating, Bermudagrass (bermudagrass; [4]): 90; Plant response rating (0 = no effect, 100 = complete control), Morningglory (morningglory; 125 g ai/ha, preemergence): 25; Plant response rating (0 = no effect, 100 = complete control), Cupgrass, Woolly (woolly cupgrass; 125 g ai/ha, preemergence): 0; Plant response rating, Cupgrass, Woolly (woolly cupgrass; [4]): 40; Plant response rating (0 = no effect, 100 = complete control), Surinam Grass (Surinam grass; 125 g ai/ha, preemergence): 95; Plant response rating, Surinam Grass (Surinam grass; [4]): 100
